Results reported in US7435837B2, “Dihydrobenzofuranyl alkanamine derivatives and methods for using same” (Wyeth, priority 2003, dated 2008).

Experiments:
human 5-HT2C receptor = target: T1, human 5-HT2C receptor (Homo sapiens, UniProt P28335); assay: 5-HT2C receptor-stimulated calcium mobilization (FLIPR) in CHO cells; assay type: cell-based; conditions: for Emax: CHO, read-out: 5-HT2C Function Emax (%); for Emax / 5-HT2C Function Emax (%): percentage of the response observed with a maximally effective concentration of 5-HT; for EC50: calcium mobilization, CHO cells stably expressing human 5-HT2C, read-out: 5-HT2C Function EC50;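 for all read-outs here: Fluo-3-AM fluorescence read on FLIPR every 1 s, agonist added after 10 baseline reads, response taken as peak minus lowest raw fluorescence count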
T1 sequence (P28335 33-458): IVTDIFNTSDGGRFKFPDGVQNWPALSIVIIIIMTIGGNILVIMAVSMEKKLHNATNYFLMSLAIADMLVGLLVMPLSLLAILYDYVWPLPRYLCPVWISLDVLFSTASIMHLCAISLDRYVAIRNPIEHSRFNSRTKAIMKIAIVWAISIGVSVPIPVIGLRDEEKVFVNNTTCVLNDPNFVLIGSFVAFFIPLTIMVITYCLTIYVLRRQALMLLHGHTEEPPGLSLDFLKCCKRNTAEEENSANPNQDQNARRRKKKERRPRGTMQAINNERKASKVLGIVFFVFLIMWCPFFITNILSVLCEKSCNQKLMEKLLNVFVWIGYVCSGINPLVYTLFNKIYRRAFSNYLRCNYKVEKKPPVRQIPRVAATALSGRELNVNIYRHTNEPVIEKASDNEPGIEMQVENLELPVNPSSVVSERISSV

[1] = target: T2, human 5-hydroxytryptamine-2C (h5-HT2C) receptor (Homo sapiens, UniProt P28335); assay: [125I]DOI binding to membranes of CHO cells expressing the human 5-HT2C receptor; conditions: [125I]DOI radioligand, CHO cell membranes, room temperature 60 min; read-out: 5-HT2C Affinity Ki
T2 construct: expressed in transfected cells; host or cells: CHO (Chinese Hamster Ovary) cells; membranes
T2 sequence (P28335 33-458): T1 sequence (P28335 33-458)

Compound	Emax (human 5-HT2C receptor)	EC50 (human 5-HT2C receptor)	Ki [1]	5-HT2C Function Emax (%) (human 5-HT2C receptor)
Cc1cccc(-c2cc(F)cc3c2OC(CN)C3)c1 (racemic) [Example 198, (±)-{[5-fluoro-7-(3-methylphenyl)-2,3-dihydro-1-benzofuran-2-yl]methyl}amine]	60%	903 nM	17 nM	
CNCC1Cc2cc(OC)cc(-c3cccc(F)c3F)c2O1 (racemic) [Example 494, (±)-{[7-(2,3-difluorophenyl)-5-methoxy-2,3-dihydro-1-benzofuran-2-yl]methyl}methylamine]	60%	475 nM	35 nM	
COc1ccccc1-c1cc(C)cc2c1OC(CN)C2 (racemic) [Example 284, (±)-{[7-(2-methoxyphenyl)-5-methyl-2,3-dihydro-1-benzofuran-2-yl]methyl}amine]	100%	7 nM	0.8 nM	
NCC1Cc2cc(F)cc(-c3cc(F)ccc3F)c2O1 (racemic) [Example 220, (±)-{[7-(2,5-difluorophenyl)-5-fluoro-2,3-dihydro-1-benzofuran-2-yl]methyl}amine]	90%	30 nM	8 nM	
Cc1ccccc1-c1c(F)ccc2c1OC(CN)C2 (racemic) [Example 395, (±)-{[6-fluoro-7-(2-methylphenyl)-2,3-dihydro-1-benzofuran-2-yl]methyl}amine]	90%	0.4 nM	0.3 nM	
NCC1Cc2cccc(-c3ccccc3Cl)c2O1 (single isomer, unassigned; (+)) [Example 130, (+)-1-[7-(2-chlorophenyl)-2,3-dihydro-1-benzofuran-2-yl]methanamine]		54 nM	4.8 nM	80%
Cc1cc2c(c(-c3ccccc3C(F)(F)F)c1)OC(CN)C2 (racemic) [Example 287, (±)-({5-methyl-7-[2-(trifluoromethyl)phenyl[-2,3-dihydro-7-benzofuran-2-yl}methyl)amine]	90%	21 nM	0.13 nM	
Cc1cc2c(c(-c3cccc(Cl)c3)c1)OC(CN)C2 (racemic) [Example 288, (±)-{[7-(3-chlorophenyl)-5-methyl-2,3-dihydro-1-benzofuran-2-yl]methyl}amine]	100%	38 nM	7.1 nM	
Cc1cccc(C)c1-c1cc(Cl)cc2c1OC(CN)C2 (racemic) [Example 260, (±)-{[5-chloro-7-(2,6-dimethylphenyl)-2,3-dihydro-1-benzofuran-2-yl]methyl}amine]	90%	22 nM	0.13 nM	
CNCC1Cc2cc(F)cc(-c3ccccc3F)c2O1 (racemic) [Example 438, (±)-{[5-fluoro-7-(2-fluorophenyl)-2,3-dihydro-1-benzofuran-2-yl]methyl}methylamine]	70%	68 nM	2.4 nM	
NCC1Cc2cccc(-c3ccc(F)cc3F)c2O1 (single isomer, unassigned; (+)) [Example 147, (+)-1-[7-(2,4-difluorophenyl)-2,3-dihydro-1-benzofuran-2-yl]methanamine]	90%	7 nM	1.3 nM	
COc1cccc(-c2cc(Cl)cc3c2OC(CN)C3)c1OC (racemic) [Example 249, (±)-{[5-chloro-7-(2,3-dimethoxyphenyl)-2,3-dihydro 1-benzofuran-2-yl]methyl}amine]	90%	21 nM	4 nM	
Cc1ccc(-c2cc(C)cc3c2OC(CN)C3)cc1 (racemic) [Example 290, (±)-{[7-(4-methylphenyl)-5-methyl-2,3-dihydro-1-benzofuran-2-yl]methyl}amine]	80%	58 nM	1.7 nM	
Cc1cccc(-c2cccc3c2OC(CN)C3)c1 (single isomer, unassigned; (-)) [Example 43, (−)-1-[7-(3-methylphenyl)-2,3-dihydro-1-benzofuran-2-yl]methanamine]		748 nM	100 nM	80%
Cc1ccccc1-c1cc(Cl)cc2c1OC(CN)C2 (single isomer, unassigned; (+)) [Example 96, (+)-1-[5-chloro-7-(2-methylphenyl)-2,3-dihydro-1-benzofuran-2-yl]methanamine]		27 nM	1 nM	100%
NCC1Cc2cc(F)cc(-c3ccccc3Cl)c2O1 (single isomer, unassigned; (+)) [Example 101, (+)-1-[7-(2-chlorophenyl)-5-fluoro-2,3-dihydro-1-benzofuran-2-yl]methanamine]		0.32 nM	0.2 nM	100%

Compound	Emax (human 5-HT2C receptor)	EC50 (human 5-HT2C receptor)	Ki [1]	5-HT2C Function Emax (%) (human 5-HT2C receptor)
NCC1Cc2cccc(-c3ccccc3C(F)(F)F)c2O1 (racemic) [Example 53, (±)-1-{7-[2-(trifluoromethyl)phenyl]-2,3-dihydro-1-benzofuran-2-yl}methanamine]	80%	45 nM	1 nM	
CC(C)(C)c1cc(Cl)cc2c1OC(CN)C2 (racemic) [Example 27, (±)-1-(7-tert-butyl-5-chloro-2,3-dihydro-1-benzofuran-2-yl)methanamine]	80%	2020 nM	39 nM	
NCC1Cc2cc(Cl)cc(-c3ccc(Cl)cc3Cl)c2O1 (racemic) [Example 251, (±)-{[5-chloro-7-(2,4-dichlorophenyl)-2,3-dihydro-1-benzofuran-2-yl]methyl}amine]	90%	8 nM	0.38 nM	
COc1ccc(-c2cccc3c2OC(CN)C3)c(OC)c1 (single isomer, unassigned; (-)) [Example 144, (−)-1-[7-(2,4-dimethoxyphenyl)-2,3-dihydro-1-benzofuran-2-yl]methanamine]	90%	4 nM	6.1 nM	
COc1ccc(-c2cccc3c2OC(CN)C3)cc1 (single isomer, unassigned; (-)) [Example 81, (−)-1-[7-(4-methoxyphenyl)-2,3-dihydro-1-benzofuran-2-yl]methanamine]		294 nM	24 nM	50%
Cc1ccc(Cl)cc1-c1cccc2c1OC(CN)C2 (racemic) [Example 168, (±)-{[7-(5-chloro-2-methylphenyl)-2,3-dihydro-1-benzofuran-2-yl]methyl}amine]	100%	1 nM	2 nM	
COc1cc2c(c(-c3ccc(Cl)cc3Cl)c1)OC(CN)C2 (racemic) [Example 365, (±)-{[7-(2,4-dichlorophenyl)-5-methoxy-2,3-dihydro-1-benzofuran-2-yl]methyl}amine]	100%	15 nM	24 nM	
COc1ccc(-c2cc(C(F)(F)F)cc3c2OC(CN)C3)cc1 (racemic) [Example 326, (±)-{[5-(trifluoromethyl)-7-(4-methoxyphenyl)-2,3-dihydro-1-benzofuran-2-yl]methyl}amine]	80%	228 nM	34 nM	
CNCC1Cc2cc(C)cc(-c3cc(Cl)ccc3Cl)c2O1 (single isomer, unassigned; (-)) [Example 488, (−)-{[7-(2,5-dichlorophenyl)-5-methyl-2,3-dihydro-1-benzofuran-2-yl]methyl}methylamine]		132 nM	0.34 nM	90%
NCC1Cc2cccc(-c3ccccc3C(F)(F)F)c2O1 (single isomer, unassigned; (+)) [Example 55, (+)-1-{7-[2-(trifluoromethyl)phenyl]-2,3-dihydro-1-benzofuran-2-yl}methanamine]		48 nM	3 nM	70%
NCC1Cc2cc(Cl)cc(-c3ccsc3)c2O1 (single isomer, unassigned; (-)) [Example 91, (−)-(5-chloro-7-thien-3-yl-2,3-dihydro-1-benzofuran-2-yl)methylamine]	100%	45 nM	5 nM	
NCC1Cc2cccc(-c3c(Cl)cccc3Cl)c2O1 (single isomer, unassigned; (-)) [Example 141, (−)-1-[7-(2,6-dichlorophenyl)-2,3-dihydro-1-benzofuran-2-yl]methanamine]	90%	0.03 nM	0.07 nM	
NCC1Cc2cccc(-c3ccc(F)cc3)c2O1 (single isomer, unassigned; (+)) [Example 74, (+)-1-[7-(4-fluorophenyl)-2,3-dihydro-1-benzofuran-2-yl]methanamine]	100%	11 nM	3 nM	
NCC1Cc2cccc(-c3ccc(Cl)cc3Cl)c2O1 (single isomer, unassigned; (-)) [Example 149, (−)-1-[7-(2,4-dichlorophenyl)-2,3-dihydro-1-benzofuran-2-yl]methanamine]	100%	0.97 nM	0.15 nM	
NCC1Cc2cccc(-c3ccsc3)c2O1 (racemic) [Example 44, (±)-1-(7-thien-3-yl-2,3-dihydro-1-benzofuran-2-yl)methanamine]	100%	7 nM	3 nM	
